Measurements from US7556939B2, “Identification and characterization of racemases, definition of protein signatures, and a test for detecting D-amino acid and for screening molecules capable of inhibiting the activity of racemase, especially proline racemase” (Institut Pasteur, priority 2003, dated 2009).
“And” between values parts separate entries of the source, which are not always exact repeats. Identical values can stand only once.

Target: T1, D-AAO (Sus scrofa, UniProt P00371)
T1 construct: purchased Sigma A-5222; host or cells: swine kidney
Assay: D-AAO/HRP microplate test for detection of D-amino acids
Format: biochemical, swine
Method: • (3) Prepare a mixture containing the enzymes (D-AAO/HRP Mix), as follows: The amounts are given for one well, provided that the final volume will be 100 μl with the racemase products or the substrate:
This mixture is kept in the ice until use. • (4) The quantitation reaction starts when 13 μl of D-AAO/HRP mix is added to the reaction well. • (5) The microplate is covered with an adhesive coverlid and it is left in the dark at 37° C. between […] and 2 hours. The reaction can be monitored by eye whenever a color gradient matches the D-amino acid concentration of the standard dilutions. • (6) The microplate is read with a microplate spectrophotometer using a filter of at 490 nm.
The D-AAO/HRP test described here above can also be used for this purpose with slight modifications. For that purpose, the racemase reaction step should be skipped and the microplate test should start straightforward at the II-1-2.1-2 step described above with the following remarks:
1) Standard: It should not be an equimolar mixture of D- and L-amino acid, but rather a serial dilution of D-Amino acids. The choice of amino acid is made according to the interest of the D-amino acid under investigation. The final volume in wells should be of 87 μl.
2) Negative control: It is made with the L-enantiomer of the D-amino acid under investigation. The final volume should be 87 μl.
3) Blank: It is made with 87 μl buffer*. (See paragraph II.1.1 Materials.)
4) Samples: The samples to be tested should be adjusted to pH 8,3 with buffer* and their final volumes should be of 87 μl per well.
Obs: Standards, negative controls, samples to test and blanks should be made in duplicates. They are dispensed into the wells of the microplate.
5) Then, the procedure follows steps 3) to 6), as above.
Different L- and D-amino acids were tested, namely Tyrosine (Tyr), Valine (Val), Threonine (Thr), Glutamic acid (Glu), Lysine (Lys) and Tryptophan (Try).

[1] = L-enantiomers, 12.5 mM, duplicate wells
[2] = D-enantiomers, 6.25 mM, duplicate wells

T1 sequence (P00371 whole entry): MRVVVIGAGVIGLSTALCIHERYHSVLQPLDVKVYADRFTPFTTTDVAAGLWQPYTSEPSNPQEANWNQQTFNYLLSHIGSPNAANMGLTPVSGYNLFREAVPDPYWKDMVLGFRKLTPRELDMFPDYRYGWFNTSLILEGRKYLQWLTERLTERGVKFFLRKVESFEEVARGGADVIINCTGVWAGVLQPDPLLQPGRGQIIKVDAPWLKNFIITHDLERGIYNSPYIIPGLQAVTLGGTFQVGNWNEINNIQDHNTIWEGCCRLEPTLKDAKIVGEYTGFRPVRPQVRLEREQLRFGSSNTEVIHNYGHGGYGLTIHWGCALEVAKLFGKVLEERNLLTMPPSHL

Row | Structure (SMILES) | Optical density at 490 nm [1] | Optical density at 490 nm [2] | also measured
1 | C[C@@H](O)[C@H](N)C(=O)O [L-Thr, Threonine] | 0.124 and 0.128 |  | 
2 | N[C@@H](Cc1c[nH]c2ccccc12)C(=O)O [L-Try, Tryptophan] | 0.131 and 0.138 |  | 
3 | NCCCC[C@H](N)C(=O)O [D-Lys, Lysine] |  | 0.243 and 0.157 | 
4 | CC(C)[C@H](N)C(=O)O [L-Val, Valine] | 0.135 and 0.129 |  | 
5 | N[C@@H](CCC(=O)O)C(=O)O [D-Glu, Glutamic acid] |  | 0.147 and 0.116 | 
6 | C[C@@H](O)[C@H](N)C(=O)O [D-Thr, Threonine] |  | 0.215 and 0.157 | 
7 | N[C@@H](Cc1ccc(O)cc1)C(=O)O [D-Tyr, Tyrosine] |  | 1.317 and 0.991 | 
8 | NCCCC[C@H](N)C(=O)O [L-Lys, Lysine] | 0.125 and 0.131 |  | 
9 | N[C@@H](CCC(=O)O)C(=O)O [L-Glu, Glutamic acid] | 0.131 and 0.141 |  | 
10 | CC(C)[C@H](N)C(=O)O [D-Val, Valine] |  | 1.683 and 1.612 | 
11 | O=C(O)[C@H]1CCCN1 [D-pro, D-proline] |  |  | Optical density at 490 nm (0.05 mM): 0.173; Optical density at 490 nm (0.09 mM): 0.213 and 0.215; Optical density at 490 nm (0.19 mM): 0.308 and 0.32; Optical density at 490 nm (0.39 mM): 0.496 and 0.504; Optical density at 490 nm (0.77 mM): 0.809 and 0.824; Optical density at 490 nm (1.55 mM): 1.234 and 1.221; Optical density at 490 nm (3.09 mM): 1.716 and 1.879; Optical density at 490 nm (6.19 mM): 1.983 and 1.949; Optical density at 490 nm (12.37 mM): 1.814 and 1.976; Optical density at 490 nm (24.75 mM): 1.757 and 1.885; Optical density at 490 nm (49.5 mM): 1.961 and 2.004
12 | N[C@@H](Cc1ccc(O)cc1)C(=O)O [L-Tyr, Tyrosine] | 0.193 and 0.141 |  | 
13 | N[C@@H](Cc1c[nH]c2ccccc12)C(=O)O [D-Try, Tryptophan] |  | 0.615 and 0.662 | 
